What was measured:
XPO1 (Jurkat XPO1^WT) = biological target: T1, XPO1 (Jurkat XPO1^WT) (Homo sapiens, UniProt O14980); experiment: RanBP1 immunofluorescence (XPO1-mediated nuclear export) in wild-type Jurkat cells; type: cell-based; conditions: 3 h; for Subcellular localization of RanBP1, wild-type Jurkat: compound at 4 μM; for IC50: nuclear export of RanBP1 cargo, wild-type Jurkat, mean ± SD of two independent experiments, read-out: IC50 XPO1 inhibition Jurkat XPO1^WT
T1 construct: RanBP1 immunofluorescence staining was performed on both wild type and mutant XPO1^C528S Jurkat cells; endogenous in cells; host or cells: wild-type Jurkat leukemia cells
Procedure: (§1) The effect of the mutation on the activity of the inhibitors was assessed by the visualization of the subcellular localization of the XPO1 cargo RanBP1.
(§2) Stably transfected HeLa NLSSV40-AcGFP-NESPKI were cultured as described in Vercruysse et al.
(§3) Cells were harvested at 400× g, washed in PBS and then transferred into an 8-well µ-Slide (Ibidi) pretreated with 0.1% (w/v) poly-L-lysine (Sigma). Cells were allowed to adhere to the slides and then subsequently fixed (4% PFA in PBS), washed and permeabilized (0.2% Triton X-100 in PBS). Further immunofluorescence staining was then performed according to standard procedures. Employed antibodies were rabbit anti-RanBP1 (ab97659, Abcam, Cambridge, UK) at a 1:500 dilution and secondary Alexa Fluor 488 goat anti-rabbit antibody (A11008, Invitrogen, ThermoFisher Scientific). Cell nuclei were counterstained with DAPI, and the samples were imaged by confocal microscopy on a Leica TCS SP5 confocal microscope (Leica Microsystems, Weitzlar, Germany), employing a HCX PL APO 63× (NA 1.2) water immersion objective. Subsequently, fluorescence was read on an ArrayScan XTI High Content Reader (Thermo Fisher Scientific, Waltham, MA, USA). Nuclear and cytoplasmic compartments were segmented, and their average pixel intensities in the green channel were quantitated similarly as for the XPO1 phenotypic reporter assay.

Hap-1 cells = experiment: Cell proliferation assay (IncuCyte confluence), Hap-1; type: cell-based; conditions: Homo sapiens, HAP1; Hap-1 chronic myeloid leukemia; 72 h; mean of two independent experiments ± SEM; read-out: IC50 antiproliferative activity Hap-1
Procedure: (§4) Cancer cell lines HCT-116, NCI-H460, HL-60, K-562 and Z-138 were acquired from the American Type Culture Collection (ATCC, Manassas, VA, USA). The DND-41 cell line was purchased from the Deutsche Sammlung von Mikroorganismen und Zellkulturen (DSMZ Leibniz-Institut, Brunswick, Germany), and the HAP-1 cell line was ordered from Horizon Discovery (Horizon Discovery Group, Water Beach, UK). All cell lines were cultured as recommended by the suppliers. Culture media were purchased from Gibco Life Technologies and supplemented with 10% fetal bovine serum (HyClone, GE Healthcare Life Sciences, Chicago, Illinois, USA).
(§5) Adherent cell lines HCT-116, NCI-H460 and Hap-1 cells were seeded at a density between 500 and 1500 cells per well in 384-well tissue culture plates (Greiner). After overnight incubation, cells were treated with different concentrations of the test compounds. Suspension cell lines HL-60, K-562, Z-138 and DND-41 were seeded at densities ranging from 2500 to 5500 cells per well in 384-well culture plates containing the test compounds at the same concentration points.

HCT-116 cells = experiment: Cell proliferation assay (IncuCyte confluence), HCT-116; type: cell-based; conditions: Homo sapiens; HCT-116 colorectal carcinoma; 72 h; mean of two independent experiments ± SEM; read-out: IC50 antiproliferative activity HCT-116
Procedure: as §4, §5

[1] = biological target: T2, XPO1^C528S (Jurkat XPO1^C528S) (Homo sapiens, UniProt O14980, C528S); experiment: RanBP1 immunofluorescence (XPO1-mediated nuclear export) in mutant XPO1^C528S Jurkat cells; type: cell-based; conditions: for Subcellular localization of RanBP1, mutant XPO1^C528S Jurkat: compound at 4 μM; for Subcellular localization of RanBP1, mutant XPO1^C528S Jurkat / IC50: 3 h; for XPO1 inhibitory activity against Jurkat XPO1^C528S, in words / IC50: mutant XPO1^C528S Jurkat; for IC50: nuclear export of RanBP1 cargo, mean ± SD of two independent experiments, read-out: IC50 XPO1 inhibition Jurkat XPO1^C528S
T2 construct: CRISPR/Cas9 genome editing of the Jurkat cell line was performed as in Neggers et al. [43] to generate a XPO1^C528S mutant cell line; endogenous in cells; host or cells: Jurkat cells genome-edited by CRISPR/Cas9 at the XPO1 locus (XPO1^C528S)
Procedure: as §1, §2, §3

HL-60 cells = experiment: Cell proliferation assay (IncuCyte confluence), HL-60; type: cell-based; conditions: Homo sapiens; HL-60 acute myeloid leukemia; 72 h; mean of two independent experiments ± SEM; read-out: IC50 antiproliferative activity HL-60
Procedure: as §4, §5

NCI-H460 cells = experiment: Cell proliferation assay (IncuCyte confluence), NCI-H460; type: cell-based; conditions: Homo sapiens; NCI-H460 lung carcinoma; 72 h; mean of two independent experiments ± SEM; read-out: IC50 antiproliferative activity NCI-H460
Procedure: as §4, §5

DND-41 cells = experiment: Cell proliferation assay (IncuCyte confluence), DND-41; type: cell-based; conditions: DND41; DND-41 acute lymphoblastic leukemia; 72 h; mean of two independent experiments ± SEM; read-out: IC50 antiproliferative activity DND-41
Procedure: as §4, §5

K-562 cells = experiment: Cell proliferation assay (IncuCyte confluence), K-562; type: cell-based; conditions: Homo sapiens, K562; K-562 chronic myeloid leukemia; 72 h; mean of two independent experiments ± SEM; read-out: IC50 antiproliferative activity K-562
Procedure: as §4, §5

T2 sequence (O14980 whole entry C528S): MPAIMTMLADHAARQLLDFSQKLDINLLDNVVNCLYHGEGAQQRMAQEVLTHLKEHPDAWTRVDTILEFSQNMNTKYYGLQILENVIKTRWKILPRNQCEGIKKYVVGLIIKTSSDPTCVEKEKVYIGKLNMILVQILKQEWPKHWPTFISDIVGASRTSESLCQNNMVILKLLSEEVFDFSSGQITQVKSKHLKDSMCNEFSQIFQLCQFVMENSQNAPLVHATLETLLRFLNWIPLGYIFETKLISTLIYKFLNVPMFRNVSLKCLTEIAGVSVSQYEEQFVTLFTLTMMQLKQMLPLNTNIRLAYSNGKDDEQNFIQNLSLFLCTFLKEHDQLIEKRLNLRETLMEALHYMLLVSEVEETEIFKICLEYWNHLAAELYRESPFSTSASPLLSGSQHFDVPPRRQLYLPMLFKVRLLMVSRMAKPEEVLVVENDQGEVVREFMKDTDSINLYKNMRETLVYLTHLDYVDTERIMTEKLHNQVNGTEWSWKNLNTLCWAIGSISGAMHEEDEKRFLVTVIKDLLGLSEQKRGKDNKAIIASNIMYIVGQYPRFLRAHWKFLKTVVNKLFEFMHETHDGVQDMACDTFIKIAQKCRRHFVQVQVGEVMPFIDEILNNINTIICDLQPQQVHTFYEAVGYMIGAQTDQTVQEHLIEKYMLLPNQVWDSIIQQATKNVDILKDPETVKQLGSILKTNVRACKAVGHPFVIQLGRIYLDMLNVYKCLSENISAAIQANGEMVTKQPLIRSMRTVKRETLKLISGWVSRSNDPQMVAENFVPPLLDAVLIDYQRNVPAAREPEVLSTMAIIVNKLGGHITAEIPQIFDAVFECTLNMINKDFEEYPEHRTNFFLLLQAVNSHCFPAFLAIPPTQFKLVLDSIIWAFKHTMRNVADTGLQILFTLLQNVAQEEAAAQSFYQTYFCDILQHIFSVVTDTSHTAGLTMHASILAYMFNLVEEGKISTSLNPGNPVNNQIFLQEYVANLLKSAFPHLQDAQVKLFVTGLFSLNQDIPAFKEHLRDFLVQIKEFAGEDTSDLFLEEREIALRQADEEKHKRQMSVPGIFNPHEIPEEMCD

Row | Subcellular localization of RanBP1, wild-type Jurkat (XPO1 (Jurkat XPO1^WT)) | IC50 (XPO1 (Jurkat XPO1^WT)) [nM] | IC50 (HCT-116 cells) [µM] | Subcellular localization of RanBP1, mutant XPO1^C528S Jurkat [1] | XPO1 inhibitory activity against Jurkat XPO1^C528S, in words [1] | IC50 [1] [µM] | IC50 (HL-60 cells) [nM] | melting point [°C] | IC50 (NCI-H460 cells) [nM] | IC50 (K-562 cells) [µM] | SMILES | IC50 (Hap-1 cells) [nM] | IC50 (DND-41 cells) [nM]
1 | RanBP1 accumulated in the nucleus | 2200 ± 30 | 2.4 ± 0.2 | its nuclear export was not inhibited | lost their inhibitory activity | > 5 | 2000 ± 500 | 175 to 177 | 2100 ± 100 | 1.8 ± 0.08 | O=C(/C=C/c1cncnc1)c1ccc2ccccc2c1 [Compound 9, (E)-1-(Naphthalen-2-yl)-3-(pyrimidin-5-yl)prop-2-en-1-one] | 2300 ± 200 | 2100 ± 500
2 | RanBP1 accumulated in the nucleus | 300 ± 300 | 4.7 ± 1.7 | its nuclear export was not inhibited | lost their inhibitory activity | > 5 | 2200 ± 300 | 184 to 185 | 3500 ± 1500 | 7.2 ± 1.9 | COc1cc(OC)cc(C(=O)/C=C/c2cncnc2)c1 [Compound 10, (E)-1-(3′,5′-Dimethoxyphenyl)-3-(pyrimidin-5′’-yl)prop-2-en-1-one] | 2100 ± 200 | 1500 ± 200
